Calls of active or inactive are those of the source.
Assays:
[1] = molecular target: T1, Apoptotic protease-activating factor 1 (Homo sapiens, UniProt O14727); type: functional
T1 sequence (O14727 whole entry): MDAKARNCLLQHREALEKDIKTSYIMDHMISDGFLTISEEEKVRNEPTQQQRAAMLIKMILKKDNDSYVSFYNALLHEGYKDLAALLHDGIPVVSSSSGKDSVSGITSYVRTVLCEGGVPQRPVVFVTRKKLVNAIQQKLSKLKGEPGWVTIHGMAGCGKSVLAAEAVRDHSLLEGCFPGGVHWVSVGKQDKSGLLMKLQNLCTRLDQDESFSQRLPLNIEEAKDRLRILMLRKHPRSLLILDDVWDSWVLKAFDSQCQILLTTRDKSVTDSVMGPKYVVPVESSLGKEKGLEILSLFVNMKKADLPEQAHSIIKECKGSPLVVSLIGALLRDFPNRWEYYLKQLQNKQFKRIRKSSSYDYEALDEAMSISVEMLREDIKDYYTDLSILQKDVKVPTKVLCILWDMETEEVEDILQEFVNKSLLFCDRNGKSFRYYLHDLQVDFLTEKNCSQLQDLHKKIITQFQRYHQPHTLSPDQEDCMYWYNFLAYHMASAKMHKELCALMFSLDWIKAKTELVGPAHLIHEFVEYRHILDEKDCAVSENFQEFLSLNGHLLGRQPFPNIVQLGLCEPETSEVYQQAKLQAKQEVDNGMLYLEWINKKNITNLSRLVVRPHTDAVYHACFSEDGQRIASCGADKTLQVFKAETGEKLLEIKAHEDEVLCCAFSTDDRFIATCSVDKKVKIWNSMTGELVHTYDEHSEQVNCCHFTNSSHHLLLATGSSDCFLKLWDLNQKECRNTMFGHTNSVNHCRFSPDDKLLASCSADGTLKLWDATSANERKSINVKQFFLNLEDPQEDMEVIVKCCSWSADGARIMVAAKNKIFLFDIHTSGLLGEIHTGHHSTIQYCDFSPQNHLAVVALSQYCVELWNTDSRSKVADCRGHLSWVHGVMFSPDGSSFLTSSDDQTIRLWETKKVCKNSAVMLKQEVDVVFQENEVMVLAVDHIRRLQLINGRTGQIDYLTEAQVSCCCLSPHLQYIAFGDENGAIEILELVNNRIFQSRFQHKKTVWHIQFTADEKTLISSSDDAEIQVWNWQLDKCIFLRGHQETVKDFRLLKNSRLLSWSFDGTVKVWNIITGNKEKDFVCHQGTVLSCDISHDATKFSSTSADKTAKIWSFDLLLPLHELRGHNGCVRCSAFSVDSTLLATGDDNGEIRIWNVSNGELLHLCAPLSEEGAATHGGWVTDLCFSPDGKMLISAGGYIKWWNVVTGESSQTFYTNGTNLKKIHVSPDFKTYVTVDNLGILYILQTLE

[2] = Luminescence Cell-Based Dose Confirmation HTS to Identify Activators of 5'UTR Stem-Loop Driven Alpha-Synuclein mRNA Translation in H4 Neuroglioblastoma Cells. [Related pubchem assays: 1829 (Project Summary), 1814 (Primary HTS)]; type: functional
Protein skinhead-1 = molecular target: T2, Protein skinhead-1 (Caenorhabditis elegans, UniProt P34707); type: functional
T2 sequence (P34707 whole entry): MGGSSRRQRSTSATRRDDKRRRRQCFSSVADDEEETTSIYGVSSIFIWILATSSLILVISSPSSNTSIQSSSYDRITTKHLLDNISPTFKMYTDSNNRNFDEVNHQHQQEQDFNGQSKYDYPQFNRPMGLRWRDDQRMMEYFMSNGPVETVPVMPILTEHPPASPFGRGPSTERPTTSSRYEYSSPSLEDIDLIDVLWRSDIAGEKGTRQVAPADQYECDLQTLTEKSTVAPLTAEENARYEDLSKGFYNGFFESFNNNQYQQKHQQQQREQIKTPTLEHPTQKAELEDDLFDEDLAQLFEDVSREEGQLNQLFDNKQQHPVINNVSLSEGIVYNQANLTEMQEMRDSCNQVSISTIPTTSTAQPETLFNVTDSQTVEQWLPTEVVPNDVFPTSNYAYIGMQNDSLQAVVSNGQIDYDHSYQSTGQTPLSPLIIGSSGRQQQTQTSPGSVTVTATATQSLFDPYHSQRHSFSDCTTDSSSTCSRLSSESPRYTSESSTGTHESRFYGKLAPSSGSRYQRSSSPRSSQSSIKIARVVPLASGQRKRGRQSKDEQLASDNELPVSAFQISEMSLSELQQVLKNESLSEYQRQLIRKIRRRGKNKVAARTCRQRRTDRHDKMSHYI

[3] = Luminescence Cell-Based Dose Response HTS to Identify Activators of Luciferase Translation or Activity in H4 […] Cells. [Related pubchem assays: 1829 (Project Summary), 1814 (Primary HTS)]; type: functional
H4 = assay: Luminescence Cell-Based Dose Response HTS to Identify Activators of 5'UTR Stem-Loop Driven Prion Protein mRNA Translation in H4 Neuroglioblastoma Cells. [Related pubchem assays: 1829 (Project Summary), 1814 (Primary HTS)]; type: functional; conditions: Homo sapiens
Cytochrome P450 3A4 = Cytochrome P450 3A4 (Homo sapiens, UniProt P08684);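 note: CYP3A4 tested as one member of a cytochrome P450 panel screen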
Sequence of Cytochrome P450 3A4 (P08684 whole entry): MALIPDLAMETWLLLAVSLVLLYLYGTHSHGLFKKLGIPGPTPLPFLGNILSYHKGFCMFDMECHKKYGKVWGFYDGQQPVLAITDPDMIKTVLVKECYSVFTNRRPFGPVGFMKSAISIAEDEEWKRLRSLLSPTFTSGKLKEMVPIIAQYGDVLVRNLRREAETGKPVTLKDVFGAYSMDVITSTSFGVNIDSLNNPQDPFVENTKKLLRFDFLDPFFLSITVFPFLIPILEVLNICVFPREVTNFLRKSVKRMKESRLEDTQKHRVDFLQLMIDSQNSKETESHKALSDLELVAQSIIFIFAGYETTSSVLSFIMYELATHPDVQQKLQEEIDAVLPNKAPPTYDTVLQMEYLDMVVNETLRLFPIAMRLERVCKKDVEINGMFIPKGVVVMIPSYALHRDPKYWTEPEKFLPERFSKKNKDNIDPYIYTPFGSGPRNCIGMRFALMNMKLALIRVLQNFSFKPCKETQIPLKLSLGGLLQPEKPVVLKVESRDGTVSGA

A-375 = assay: proliferation inhibition in MITF-low A375 cells – cell-based, cherry-pick samples, set 2, counter-screen for MITF modulator project, dose response (AID 540335); type: functional; conditions: Homo sapiens
[4] = molecular target: T3, Microphthalmia-associated transcription factor (Homo sapiens, UniProt O75030); assay: reducers of TRPM1 reporter luminescence, concentration series – cell-based, SK-MEL-5, cherry-picked, set 3, MITF inhibitor project, dose response (AID 493073); type: functional;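 note: SK-MEL-5 melanoma cells with luciferase driven by the MITF target TRPM1 promoter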
T3 sequence (O75030 whole entry): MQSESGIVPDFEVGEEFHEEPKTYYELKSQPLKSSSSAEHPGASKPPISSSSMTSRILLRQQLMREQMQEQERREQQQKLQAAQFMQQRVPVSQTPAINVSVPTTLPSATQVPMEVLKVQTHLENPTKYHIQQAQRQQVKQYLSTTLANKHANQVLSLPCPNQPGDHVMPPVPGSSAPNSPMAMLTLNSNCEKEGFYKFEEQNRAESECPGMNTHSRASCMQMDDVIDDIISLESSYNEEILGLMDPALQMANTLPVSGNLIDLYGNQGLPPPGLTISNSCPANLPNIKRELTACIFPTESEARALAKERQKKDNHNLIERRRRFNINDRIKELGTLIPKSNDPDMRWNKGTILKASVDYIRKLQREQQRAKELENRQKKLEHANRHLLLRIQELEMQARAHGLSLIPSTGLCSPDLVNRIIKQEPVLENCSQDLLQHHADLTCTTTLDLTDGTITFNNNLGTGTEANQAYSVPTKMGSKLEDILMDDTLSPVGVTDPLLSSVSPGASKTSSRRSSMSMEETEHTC

Melanocortin receptor 4 [5] = molecular target: T4, Melanocortin receptor 4 (Homo sapiens, UniProt P32245); type: functional, cell-based;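 note: Cell-based assay with luminescence read-out, confirmatory dose-response testing for agonist activity of biased ligands at MC4R; human U2OS cells with tagged receptor and beta-arrestin; potency of agonists that increase receptor coupling to beta-arrestin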
T4 sequence (P32245 whole entry): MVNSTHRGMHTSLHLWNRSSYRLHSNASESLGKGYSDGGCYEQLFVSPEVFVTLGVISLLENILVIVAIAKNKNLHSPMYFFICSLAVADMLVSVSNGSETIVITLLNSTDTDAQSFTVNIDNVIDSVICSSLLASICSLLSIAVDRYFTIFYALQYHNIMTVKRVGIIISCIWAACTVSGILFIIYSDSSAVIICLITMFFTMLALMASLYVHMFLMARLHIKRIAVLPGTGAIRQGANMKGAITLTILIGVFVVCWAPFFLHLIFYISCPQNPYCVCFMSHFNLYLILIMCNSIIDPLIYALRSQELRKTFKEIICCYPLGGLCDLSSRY

[6] = cAMP pathway inhibition in counterscreen cell line – TR-FRET cAMP detection, counter-screen for MC4R biased antagonist project, dose response (AID 602305); type: functional, cell-based;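 note: U2OS cells stimulated with forskolin near its EC80 as the cAMP inducer; potency is for inhibition of forskolin-stimulated cAMP signaling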
INS1 = assay: INS-1E survival protection against cytokine death – cell-based, luminescence, retest, dose response (AID 449756); type: functional; conditions: Rattus norvegicus;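 note: cell death triggered by IL-1 beta plus TNF-alpha plus IFN-gamma mixture; protective hits raise ATP signal compared with cytokine alone wells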
[7] = Luminescence Cell-Based Dose Retest to Confirm Inhibitors of Cancer Stem Cells. [Related pubchem assays (depositor defined):AID2717, AID2721]; type: functional; conditions: Homo sapiens
Melanocortin receptor 4 [8] = molecular target: T4, Melanocortin receptor 4; assay: inhibitors of MC4R cAMP signaling – cell-based, TR-FRET, biased antagonists, dose response (AID 602298); type: functional;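 note: antagonist potency against agonist-stimulated cAMP production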
[9] = loss of viability in HepG2 cells – cell-based, CellTiter-Glo, cherry-picked, cytotoxicity control for Shn3 inhibitor project, dose response (AID 624134); type: functional
[10] = non-specific 3'UTR reporter inhibition in Clone20-Shn3RL – cell-based, Renilla luciferase, cherry-picked, counter-screen for Shn3 inhibitor project, dose response (AID 624133); type: functional
[11] = reduction of Shn3 3'UTR-driven luciferase in osteoblasts – cell-based, Clone20 osteoblasts, firefly luciferase, cherry-picked, dose response (AID 624132); type: functional;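 note: firefly luciferase luminescence from reporter carrying the Shn3 3'UTR in osteoblasts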
[12] = Fluorescence-based cell-based high throughput dose response assay for inhibitors of the interaction of nucleotide-binding oligomerization domain containing 2 (NOD2) and the receptor-interacting serine-threonine kinase 2 (RIPK2).; type: functional; conditions: Homo sapiens
Vero = assay: viability of Vero cells under compound – cytotoxicity control for flavivirus capping enzyme inhibitors (AID 588742); type: functional; conditions: Chlorocebus sabaeus
[13] = molecular target: T5, Corticotropin-releasing factor receptor 2/Corticotropin-releasing factor-binding protein (Homo sapiens, UniProt P24387+Q13324); assay: activators of CRF receptor 2 with binding protein – uHTS hits, confirmation (AID 602473); type: functional; conditions: read-out: EC50_Mean
T5 sequence (Q13324 whole entry): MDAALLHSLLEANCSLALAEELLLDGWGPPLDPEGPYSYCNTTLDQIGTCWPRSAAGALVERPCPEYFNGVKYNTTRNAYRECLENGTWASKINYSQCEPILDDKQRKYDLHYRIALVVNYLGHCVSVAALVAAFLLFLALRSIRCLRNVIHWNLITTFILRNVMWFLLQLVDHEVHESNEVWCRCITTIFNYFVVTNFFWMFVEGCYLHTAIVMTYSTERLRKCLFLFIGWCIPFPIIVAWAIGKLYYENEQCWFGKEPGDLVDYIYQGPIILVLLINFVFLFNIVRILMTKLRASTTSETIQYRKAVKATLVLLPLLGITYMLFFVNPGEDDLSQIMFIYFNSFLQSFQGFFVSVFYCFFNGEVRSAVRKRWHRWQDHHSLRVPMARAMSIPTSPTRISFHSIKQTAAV
T5 sequence (P24387 whole entry): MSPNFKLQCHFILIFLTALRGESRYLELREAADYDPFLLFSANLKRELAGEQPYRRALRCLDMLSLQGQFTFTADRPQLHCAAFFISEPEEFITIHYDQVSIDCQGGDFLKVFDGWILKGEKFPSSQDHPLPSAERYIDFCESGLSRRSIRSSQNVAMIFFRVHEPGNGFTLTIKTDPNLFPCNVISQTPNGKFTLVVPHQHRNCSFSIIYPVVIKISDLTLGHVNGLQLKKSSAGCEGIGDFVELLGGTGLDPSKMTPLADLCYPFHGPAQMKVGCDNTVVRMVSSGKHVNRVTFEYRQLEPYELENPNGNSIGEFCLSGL

H9c2 = assay: cells; type: functional, cell-based; conditions: Rattus norvegicus, H9c2, Myocardium;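 note: confirmatory concentration-response retest of ultra-high-throughput screening hits for modulation of myocardial damage; cell death induced by hydrogen peroxide oxidative stress; compound pretreatment for 60 min then peroxide exposure for 2 h; potency is for protecting the cells against peroxide damage rather than for killing them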
Genome polyprotein = Genome polyprotein (dengue virus type 2, UniProt P29990); assay: flavivirus cap methylation enzyme inhibition – biochemical, confirmation dose response, primary screen (AID 588689); type: functional
Sequence of Genome polyprotein (P29990 2492-3391 limits assumed): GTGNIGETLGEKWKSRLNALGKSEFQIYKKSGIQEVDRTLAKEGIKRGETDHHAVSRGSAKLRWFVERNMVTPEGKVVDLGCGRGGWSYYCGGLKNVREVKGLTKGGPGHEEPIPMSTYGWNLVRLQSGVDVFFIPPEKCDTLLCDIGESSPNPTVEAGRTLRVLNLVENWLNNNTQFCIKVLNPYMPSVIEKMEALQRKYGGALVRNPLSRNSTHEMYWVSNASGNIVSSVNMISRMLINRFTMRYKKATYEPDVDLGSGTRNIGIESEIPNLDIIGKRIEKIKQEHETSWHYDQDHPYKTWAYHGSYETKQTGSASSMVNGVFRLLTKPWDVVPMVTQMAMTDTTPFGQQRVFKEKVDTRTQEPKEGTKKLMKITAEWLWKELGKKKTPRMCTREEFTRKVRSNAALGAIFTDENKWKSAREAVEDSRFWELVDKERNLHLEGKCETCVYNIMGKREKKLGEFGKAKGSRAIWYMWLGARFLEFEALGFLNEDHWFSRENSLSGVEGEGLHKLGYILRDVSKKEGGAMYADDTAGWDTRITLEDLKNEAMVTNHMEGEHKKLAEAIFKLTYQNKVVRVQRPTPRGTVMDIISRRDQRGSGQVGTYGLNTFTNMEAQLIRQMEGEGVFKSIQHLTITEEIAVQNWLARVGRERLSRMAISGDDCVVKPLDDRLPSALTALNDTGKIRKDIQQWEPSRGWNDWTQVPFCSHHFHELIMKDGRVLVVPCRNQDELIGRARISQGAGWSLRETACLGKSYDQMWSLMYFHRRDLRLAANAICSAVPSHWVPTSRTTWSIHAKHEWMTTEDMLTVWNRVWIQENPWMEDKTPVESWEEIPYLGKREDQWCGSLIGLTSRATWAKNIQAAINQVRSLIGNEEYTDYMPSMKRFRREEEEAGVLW

[14] = THP-1 cell cytotoxicity, cytotoxicity control, set 4 (AID 504911); type: functional; conditions: Mycobacterium tuberculosis

Q: With COc1ccc2c(c1)Cc1sc(NC(=O)c3ccccc3)nc1-2 as the compound, how does the IC50 [1] read?
A: 27.5 µM (active)

Q: And the EC50 [2]?
A: 31.3 µM (active)

Q: What about the IC50 (Protein skinhead-1) of the same compound?
A: > 100 µM (inactive)

Q: What about the EC50 [3] of the same compound?
A: 42.4 µM (active)

Q: What about the EC50 (H4) of the same compound?
A: 4.58 µM (active)

Q: With CC1CC2(CCCCC2)N2C(=O)C(=O)c3cccc1c32 (configuration not stated) as the compound, how does the IC50 [1] read?
A: 24.4 µM (active)

Q: What about the AC50 (Cytochrome P450 3A4) of the same compound?
A: 25.1 µM (inconclusive)

Q: With COc1cccc2c1C(=O)C=C(C)C2=O as the compound, how does the IC50 [1] read?
A: 14.4 µM (active)

Q: What about the AC50 (A-375) of the same compound?
A: 37.8 µM (active)

Q: What about the AC50 [4] of the same compound?
A: 7.83 µM (active)

Q: Which EC50 (Melanocortin receptor 4 [5]) does the source give for CC(=O)Nc1cc(-c2ccccc2F)cn2c(-c3cccc(C(F)(F)F)c3)cnc12 here?
A: > 89.2 µM (inactive)

Q: With CC1=C(CO)C(=O)OC([C@@H](C)C2CC[C@H]3C4C[C@H]5O[C@]56[C@@H](O)C=CC(=O)[C@]6(C)C4CC[C@]23C)C1 (some centres not stated) as the compound, how does the IC50 [6] read?
A: > 64.6 µM (inactive)

Q: What about the EC50 [2] of the same compound?
A: > 120 µM (not active)

Q: What about the AC50 (INS1) of the same compound?
A: 7.49 µM (active)

Q: And the AC50 [7]?
A: 0.982 µM (active)

Q: What about the IC50 (Melanocortin receptor 4 [8]) of the same compound?
A: > 64.6 µM (inactive)

Q: What about the AC50 [9] of the same compound?
A: 9.71 µM (active)

Q: What about the AC50 [10] of the same compound?
A: 1.99 µM (active)

Q: What about the EC50 [3] of the same compound?
A: > 120 µM (not active)

Q: And the AC50 [11]?
A: 0.674 µM (active)

Q: What about the IC50 [12] of the same compound?
A: 2.65 µM (active)

Q: And the EC50 (H4)?
A: > 120 µM (not active)

Q: With NC(=O)C1=C(c2ccccc2)c2ccccc2C1=O as the compound, how does the CC50 (Vero) read?
A: 32.1 µM (active)

Q: And the EC50 [13]?
A: 11.9 µM (active)

Q: And the IC50 (H9c2)?
A: > 79 µM (inactive)

Q: And the IC50 (Genome polyprotein)?
A: 59.5 µM (active)

Q: Which CC50 [14] does the source give for CCCc1cc(C(N)=S)ccn1 [PROTIONAMIDE] here?
A: > 100 µM (active)

— ChEMBL document CHEMBL1201862, “PubChem BioAssay data set” (2004)
